Literature values as cited in patent US6423677B1, “Cleaner/degreaser concentrate compositions” (Buckeye International, Inc., priority 1995, dated 2002).

Settings: in water, ambient temperature

SMILES	aqueous ambient temperature solubility [wt. %]
CC1=CC(=O)CC(C)(C)C1 [isophorone]	1.2
CCN(CC)c1ccccc1 [N,N-diethylaniline]	1.4
OCc1ccccc1 [benzyl alcohol]	4.4
O=Cc1ccccc1 [benzaldehyde]	0.3
c1ccc(N2CCOCC2)cc1 [N-phenylmorpholine]	1.0
CC[N+](=O)[O-] [nitroethane]	4.5
O=C1CCCCC1 [cyclohexanone]	2.3
CCCCOC(C)=O [n-butyl acetate]	0.7

Results, then the molecule that gave them:

aqueous ambient temperature solubility [wt. %]	SMILES
0.88	CCOC(=O)CCCC(=O)OCC [diethyl glutarate]
2.08	CCOC(=O)CC(=O)OCC [diethyl malonate]
0.5	CC(=O)c1ccccc1 [acetophenone]
0.43	CCOC(=O)CCCCC(=O)OCC [diethyl adipate]
2.7	CCCCCO [n-amyl alcohol]
2.0	CC(=O)CC(C)C [methylisobutyl ketone]
1.1	CC(O)COc1ccccc1 (centres unmarked) [1-phenoxy-2-propanol]
2.3	OCCOc1ccccc1 [2-phenoxyethanol]
0.25	CCCCCOC(C)=O [n-amyl acetate]
1.6	OCCc1ccccc1 [β-phenylethanol]

Same assay, conditions: in water; solvents not useful in the invention

aqueous solubility	SMILES
16.5 wt. %	COCC(C)OC(C)=O (centres unmarked) [propylene glycol monomethyl ether acetate]
19.6 wt. %	CC1COC(=O)O1 (centres unmarked) [propylene carbonate]
0.05 wt. %	CC(C)CC(=O)CC(C)C [2,6-dimethyl-4-heptanone]
infinite	CN1CCCC1=O [N-methyl pyrrolidone]
0.095 wt. %	CCCCC(CC)COCCO (centres unmarked) [2-(2-ethylhexoxy)-ethanol]
